Article PMC10374545, “A small molecule inhibitor of PTP1B and PTPN2 enhances T cell anti-tumor immunity” (Nature Communications, 2023)
Where “and” joins values, the source holds several entries; their conditions need not be identical. Equal values may be shown once.

Legend:
[1] = system: MC38 colon tumors; assay: MC38 colon tumor growth in C57BL/6 mice; type: in vivo, mouse; details: for Tumour growth MC38, individual mice: 10 mg, listed as CMP-182
Method: (§1) Male or female mice were injected subcutaneously with 5 × 10^5 MC38 tumor cells resuspended in 100 μl D-PBS into the flank. Alternatively, female mice were injected orthotopically with 5 × 10^5 AT3 or AT3-OVA or PTPN2-deleted AT3 or AT3-OVA tumor cells resuspended in 20 μl D-PBS into the fourth mammary fat pad. Tumor sizes were measured in two dimensions (mm^2) using electronic callipers two to three times per week as soon as tumors were palpable (20–25 mm^2).

[2] = Serum liver enzymes AST and ALT; type: in vivo, mouse; set-up: Serum ALT: unit not given here
Source text: CD3ε (BD Biosciences Cat# 553058) and CD28 (BD Biosciences Cat# 557393) antibodies for T cell stimulation and NK1.1 (BD Biosciences Cat# 564143) antibody for NK cell stimulation were purchased from BD Biosciences. Ly49H (clone 3D10, BioLegend Cat# 144702) antibody for NK stimulation was from BioLegend. For analyzing T cell signaling, p-(Y418) SFK (Thermo Fisher Scientific Cat# 14-9034-82) was from Invitrogen and p-(Y694) STAT-5 (D47E7) XP® (Cell Signaling Technology Cat# 4322) was from Cell Signaling. Recombinant human IL-2, recombinant murine IL-7 and recombinant human IL-15 were purchased from the PeproTech, recombinant mouse IL-12 and recombinant human IL-18 were from Australia Biosearch and […] (N4) from Mimotopes. InVivoMAb anti-mouse PD-1 (Bio X Cell Cat# BE0146) and InVivoMAb rat IgG2a isotype control (Bio X Cell Cat# BE0251) were purchased from Bio X Cell. DNase I was from Sigma-Aldrich. Rabbit monoclonal PTP1B (Abcam Cat# ab244207) antibody for flow cytometry was from Abcam and mouse monoclonal PTPN2 6F3 antibody for immunoblotting and flow cytometry was from MédiMabs (Cat# MM-019-P). Mouse anti-actin (Thermo Fisher Scientific Cat# MA5-11866) from Invitrogen and mouse α-tubulin (Sigma-Aldrich Cat# T5168) was from Merck. The mouse anti-nuclear antibodies Ig’s (total IgA+G + M) ELISA Kit was from Alpha Diagnostic Int. and the Transaminase II Kit from Wako Pure Chemicals. FBS was purchased from Thermo Scientific, RPMI 1640, DMEM, MEM, HEPES, non-essential amino acids, penicillin/streptomycin, and sodium-pyruvate were from Invitrogen, collagenase type IV was purchased from Worthington Biochemical and ABBV-CLS-484 was from MedChemExpress (Cat# HY-145923).

[3] = system: AT3-OVA mammary tumors; assay: AT3-OVA tumor growth in Lck-Cre;Ptpn2fl/fl mice; type: in vivo, mouse; set-up: key to Tumour growth: tumour size in mm^2 (two-dimensional caliper measurement); details: for Tumour growth: AT3-OVA tumours, individual mice (Figure 7A)
Method: as §1

[4] = target: T1, PTPN2 (Homo sapiens, UniProt P17706); assay: Mode of inhibition and Ki, Lineweaver-Burk kinetic analysis with DiFMUP; type: biochemical
T1 construct: PTPN2, residues 1-387; made in house; host or cells: E. coli BL21(DE3)
T1 sequence (P17706 1-387 isoform P17706-2): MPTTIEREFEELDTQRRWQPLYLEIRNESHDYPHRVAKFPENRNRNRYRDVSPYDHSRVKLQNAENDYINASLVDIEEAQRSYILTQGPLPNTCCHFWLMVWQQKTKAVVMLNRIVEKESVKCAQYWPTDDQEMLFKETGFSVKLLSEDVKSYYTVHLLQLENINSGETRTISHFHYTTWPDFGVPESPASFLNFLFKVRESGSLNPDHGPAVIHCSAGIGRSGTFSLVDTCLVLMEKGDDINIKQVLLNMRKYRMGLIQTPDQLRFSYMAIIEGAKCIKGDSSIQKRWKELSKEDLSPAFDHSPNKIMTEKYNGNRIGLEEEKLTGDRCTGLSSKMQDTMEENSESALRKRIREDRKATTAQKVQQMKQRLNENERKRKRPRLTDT
Method: To determine the mode of inhibition, the reactions were initiated by the addition of enzyme (final concentration for PTP1B and PTPN2 was 0.05 nM) to the reaction mixtures (0.2 ml) containing various concentrations of DiFMUP with different concentrations of the inhibitor. The reaction was allowed to proceed for 10 min and then quenched by the addition of 40 µl of a 160 µM solution of bpV(Phen) (Sigma-Aldrich, cat# SML0889). The fluorescence signal was measured using a CLARIOstar Plus Microplate Spectrophotometer (BMG Labtech) using excitation and emission wavelength of 340 nm and 450 nm, respectively. Data were fitted using Prism GraphPad 9.2.0. For selectivity studies, the inhibition assay for other PTPs were performed under the same conditions as used for PTP1B and PTPN2 except with different DiFMUP concentration corresponding to the Km of the PTP studied.

Q: Which “Tumour growth MC38, individual mice” value ([1]; day 15 post injection, in mm2) does the source give for `CC(C)(O)CCOc1ccc2cc(O)c(N3CC(=O)NS3(=O)=O)c(F)c2c1` [Compound 182, 5-(1-Fluoro-3-hydroxy-7-(3-hydroxy-3-methylbutoxy)naphthalen-2-yl)−1,2,5-thiadiazolidin-3-one 1,1-dioxide] here?
A: 31.85 and 42.18 and 22.5 and 27 and 32.94

Q: And the “Tumour growth MC38, individual mice” value ([1]; day 16 post injection, in mm2)?
A: 29.5394 and 119.382 and 44.1741 and 56.472 and 40.779

Q: And the “Tumour growth MC38, individual mice” value ([1]; day 18 post injection, in mm2)?
A: 34.2 and 109.2 and 37.7 and 77.4 and 61.62

Q: And the “Tumour growth MC38, individual mice” value ([1]; day 20 post injection, in mm2)?
A: 38.76 and 109.2 and 38.35 and 60.8 and 61.62

Q: And the “growth of subcutaneous MC38 colorectal tumors” value ([1]; 10 mg/kg i.v. every 2 days)?
A: repressed the growth

Q: And the “Tumour size, mean over all time points” value ([1]; Figure 4A (MC38), CMP-182 10 mg, n=5, line printed as AT-3, in mm2)?
A: 42.78

Q: And the “Tumour weights, median” value ([1]; MC38 tumours, CMP-182 10 mg, Figure 4A)?
A: 243.0, n=5

Q: What about the “Tumour size, Predicted (LS) mean 2” value ([1]; MC38 tumours, CMP-182 10 mg, n=5, time point 7, Figure 4A, in mm2) of the same compound?
A: 16.8

Q: What about the “Tumour size, Predicted (LS) mean 2” value ([1]; MC38 tumours, CMP-182 10 mg, n=5, time point 10, Figure 4A, in mm2) of the same compound?
A: 28.12

Q: And the “Tumour size, Predicted (LS) mean 2” value ([1]; MC38 tumours, CMP-182 10 mg, n=5, time point 13, Figure 4A, in mm2)?
A: 39.43

Q: What about the “Tumour size, Predicted (LS) mean 2” value ([1]; MC38 tumours, CMP-182 10 mg, n=5, time point 15, Figure 4A, in mm2) of the same compound?
A: 31.29

Q: And the “Tumour size, Predicted (LS) mean 2” value ([1]; MC38 tumours, CMP-182 10 mg, n=5, time point 16, Figure 4A, in mm2)?
A: 58.07

Q: What about the “Tumour size, Predicted (LS) mean 2” value ([1]; MC38 tumours, CMP-182 10 mg, n=5, time point 18, Figure 4A, in mm2) of the same compound?
A: 64.02

Q: What about the “Tumour size, Predicted (LS) mean 2” value ([1]; MC38 tumours, CMP-182 10 mg, n=5, time point 20, Figure 4A, in mm2) of the same compound?
A: 61.75

Q: And the “circulating aspartate aminotransferase (AST)” value ([2]; 10 mg/kg i.v.)?
A: moderately increased

Q: What about the “serum alanine aminotransferase (ALT)” value ([2]; 10 mg/kg i.v.) of the same compound?
A: unaffected

Q: What about the “Serum ALT” value ([2]; Figure 10C, individual mice, listed as CMP-182) of the same compound?
A: 680.498 and 1112.03 and 497.925 and 464.73 and 414.938 and 597.51 and 697.095 and 730.29

Q: What about the “Serum AST” value ([2]; Figure 10C, individual mice, listed as CMP-182, in U/L (unit assumed)) of the same compound?
A: 1826.92 and 3480.77 and 2019.23 and 1211.54 and 1250 and 1519.23 and 2346.15 and 4019.23

Q: What about the “GPT, median” value ([2]; Figure 10C, serum ALT, median, n=8) of the same compound?
A: 639.0, n=8

Q: And the “GOT, median” value ([2]; Figure 10C, serum AST, median, n=8)?
A: 1923, n=8

Q: What about the “growth of AT3-OVA tumors in Lck-Cre;Ptpn2fl/fl mice” value ([3]; 10 mg/kg i.v., effects modest) of the same compound?
A: additionally repressed the growth

Q: What about the Tumour growth ([3]; Lck-Cre;Ptpn2fl/fl mice n=6, day 7 post injection, listed as CMP-182) of the same compound?
A: 39.6 and 38.4 and 28.91 and 24.91 and 14.4 and 25

Q: What about the Tumour growth ([3]; Lck-Cre;Ptpn2fl/fl mice n=6, day 9 post injection, listed as CMP-182) of the same compound?
A: 40.2 and 33 and 27.36 and 24.44 and 20.64 and 28.6

Q: What about the Tumour growth ([3]; Lck-Cre;Ptpn2fl/fl mice n=6, day 11 post injection, listed as CMP-182) of the same compound?
A: 40.8 and 26.46 and 22.5 and 19.89 and 25.38 and 17.64

Q: What about the Tumour growth ([3]; Lck-Cre;Ptpn2fl/fl mice n=6, day 13 post injection, listed as CMP-182) of the same compound?
A: 44.8 and 30.25 and 16 and 20.25 and 29.64 and 25.38

Q: And the Tumour growth ([3]; Lck-Cre;Ptpn2fl/fl mice n=6, day 16 post injection, listed as CMP-182)?
A: 44.16 and 40.92 and 16 and 18.9 and 20.68 and 31.11

Q: And the Tumour growth ([3]; Lck-Cre;Ptpn2fl/fl mice n=6, day 19 post injection, listed as CMP-182)?
A: 38.94 and 25 and 15.2 and 25.92 and 33.48 and 38.34

Q: What about the Tumour growth ([3]; Lck-Cre;Ptpn2fl/fl mice n=6, day 22 post injection, listed as CMP-182) of the same compound?
A: 38.94 and 28.08 and 25.08 and 22.36 and 21 and 35

Q: And the Tumour weights ([3]; Lck-Cre;Ptpn2fl/fl mice n=6, individual mice (Figure 7B), listed as CMP-182, in mg (unit assumed))?
A: 123 and 76 and 120 and 82 and 67 and 156

Q: What about the mode of inhibition ([4]; Lineweaver-Burk) of the same compound?
A: classic competitive inhibitor

Q: What about the Ki ([4]; varying inhibitor and DiFMUP, steady state) of the same compound?
A: 0.26 ± 0.02 nM
